Target: T1, gp120 (Human immunodeficiency virus type 1 group M subtype B, UniProt P03375)
T1 construct: loaded with 25 μl of 6 mg/ml of gp120 (25 μM) in PBS pH 7.2
Experiment: biochemical
Assay type: binding, HIV
Procedure: If needed, experiments were repeated within a smaller concentration range (i.e., 10 trials from 0.01 to 0.10 mmol). A total volume of either 50 μl was used in each analysis. Analytes were loaded in the opposite side of the membrane and equilibrium was obtained after incubation of 12 hrs at 23° C. The association constants were determined by non-linear regression analysis. Concentrations of compounds analysed were determined by HPLC analysis by comparison against an internal control (diethyl-7-dimethylaminocoumarineacetamide). HPLC controls were run with an equimolar amount of control and analyte. The relative concentrations of each analyte were determined at both sides of the membrane. […] Each data point was recollected after regeneration of the dialysis setup by exposing the non-protein containing face of the membrane to 5 ml of PBS pH 7.2 twice for 4 to 10 hrs at 23° C.

## O=C(O[C@@H]1O[C@@H]2COC(=O)c3cc(O)c(O)c(O)c3-c3c(cc(O)c(O)c3O)C(=O)O[C@H]([C@H]1O)[C@@H]2O)c1cc(O)c(O)c(O)c1 [Corilagin]
  Kd: 120 nM

## O=C(O)c1cc(O)c(O)c(O)c1 [Gallic acid]
  Kd: ≥ 100000 nM

## O=C1O[C@H]2[C@@H]3OC(=O)c4cc(O)c(O)c(O)c4-c4c(cc(O)c(O)c4O)C(=O)OC[C@H]2O[C@@H](OC(=O)c2cc(O)c(O)c(O)c2)[C@@H]3OC(=O)c2cc(O)c(O)c3c2[C@@H]2C1=CC(=O)[C@](O)(O3)C2(O)O [Geraniin]
  Kd: 76 nM

## Cc1c(O)c(O)cc2c1C(/C(=C/C(=O)O)C(=O)OC1C3COC(=O)c4cc(O)c(O)c(O)c4-c4c(cc(O)c(O)c4O)C(=O)OC1C(O)C(OC(=O)c1cc(O)c(O)c(O)c1)O3)C(C(=O)O)OC2=O (stereo not shown) [Repandusinic acid]
  Kd: 22 nM

Reference: patent US8366935B2, “Phyllanthus extract” (Phytrix Inc., priority 2008, dated 2013)
